≈ marks a conversion by molar mass, not a printed value. Where two headings read alike, the source gives them in different places. Non-standard residues stand in square brackets, D forms with d. Residues, ends and D or L forms follow the SMILES beside them. d1Nal = N[C@H](Cc1cccc2ccccc12)C(=O)O
Columns and labels:
[1] = 72 hours following dosing
[2] = tested on: Staphylococcus aureus
[3] = tested on: P. acnes (ATCC 6919); assay: Post-antibiotic effect (PAE) study; assay type: cell-based, Propionibacterium acnes
Experimental: Post-antibiotic effect (PAE) studies with XMP.629 were conducted according to the procedure described by Craig, W. and S. Gudmundsson, “Postantibiotic Effect,” p. 296, In: Lorian, V. (ed.) Antibiotics in Laboratory Medicine, 4th ed. The post antibiotic effect measures the duration that an antibiotic affects target organisms after contact with the bacteria. In this study, an initial concentration of 5×10^6 CFU/mL P. acnes (ATCC 6919) and 1 μg/mL were incubated for 15, 30, or 60 minutes and then diluted 100-fold in BHI. The treated organisms and matched untreated controls were incubated for […]. Samples were taken and counted at hourly intervals. Recovery was determined by plate counts over time.
The postantibiotic value is the difference in time between the controls and treated cultures to increase 1 log10. Because of the long generation time (slow growth) of the organism, the recovery time was unusually long, >12 hours. This may have influenced the results as typical assays are completed within 5-6 hours.

[4] = tested on: Escherichia coli; assay: microbe, parasite or virus in culture; assay type: cell-based
Experimental: (§1) Acne vulgaris may involve a microbial consortium. Although P. acnes may be a prominent member of such a consortium, other uncharacterized bacteria may also participate. The microbial activity of XMP.629 as an acetate gel as described in Example 5 and other commonly used antibiotics was evaluated against a panel of human pathogens using standardized NCCLS protocols. […] Lesser potency was observed against the gram-negative organisms B. fragilis, B. cepacia, P. mirabilis and S. marcescens, which are often refractory to many antimicrobial compounds.

[5] = tested on: Burkholderia cepacia; assay: microbe, parasite or virus in culture; assay type: cell-based; settings: Burkholderia cepacia 25416
Experimental: as §1

[6] = tested on: Serratia marcescens; assay: microbe, parasite or virus in culture; assay type: cell-based
Experimental: as §1

[7] = tested on: Porphyromonas gingivalis; assay: microbe, parasite or virus in culture; assay type: cell-based; settings: Porphyromonas gingivalis 33277
Experimental: as §1

[8] = tested on: Bacteroides fragilis; assay: microbe, parasite or virus in culture; assay type: cell-based; settings: Bacteroides fragilis 25285
Experimental: as §1

[9] = tested on: Actinobacillus actinomycetemcomitans; assay: microbe, parasite or virus in culture; assay type: cell-based; settings: Actinobacillus actinomycetemcomitans 43718
Experimental: as §1

[10] = tested on: Salmonella ryphimurium; assay: microbe, parasite or virus in culture; assay type: cell-based; settings: Salmonella ryphimurium SL770
Experimental: as §1

[11] = tested on: Klebsiella pneumoniae; assay: microbe, parasite or virus in culture; assay type: cell-based
Experimental: as §1

[12] = tested on: Prevotella intermedia; assay: microbe, parasite or virus in culture; assay type: cell-based; settings: Prevotella intermedia 25261
Experimental: as §1

[13] = tested on: Proteus mirabilis; assay: microbe, parasite or virus in culture; assay type: cell-based; settings: Proteus mirabilis 29852
Experimental: as §1

[14] = tested on: S. aureus; assay: Comparison of XMP.629 with standard topical agents (MIC90/MBC); assay type: cell-based, Staphylococcus aureus
Experimental: Control tubes containing only water or formulation buffer were prepared for each isolate. Initial growth controls were determined by removing 10 μL from the water control tube and diluting it by 100 fold. From this dilution, 10 μL was used for inoculation and for spreading over the surface onto Laked Blood Agar (LBA) (Anaerobe Systems, Morgan Hill, Calif.) plates. The tubes and plates were incubated in an anaerobic atmosphere at 37° C. for 48 h. […] MBC50 and 90 values represent where 50 and 90%, respectively, of the tested strain's MBC values are equal to or less than the indicated concentration.

[15] = tested on: P. acnes strain (ATCC 6919); settings: ATCC 6919
[16] = tested on: CD [Crl:CD (SD) IGS BR] rats; assay: Rat acute oral toxicity test; assay type: in vivo
Experimental: XMP.629 was evaluated for acute toxicity following a single dose by oral gavage. The study consisted of three treatment groups of five male and five female CD [CrI:CD (SD) IGS BR] rats which received XMP.629 as a gel at concentrations of 0.1, 0.5, and 1.0% of XMP.629 respectively at a volume of 10 mL/kg. An additional group of five rats per sex served as the control and received control gel at the same volume. All rats were observed twice daily for morbidity, mortality, injury, and availability of food and water. Body weights were measured pretest and at different intervals during the study for all rats; observations for clinical signs were conducted pretest and at approximately 2 and 4 hours following the dose; and daily clinical observations were conducted daily until Day 14. At study termination, gross necropsies were conducted and macroscopic observations were recorded for all animals.

[17] = tested on: eye of New Zealand White rabbits; assay: Rabbit primary eye irritation test (Draize); assay type: in vivo
Experimental: XMP.629 was evaluated in a rabbit primary eye irritation test for potential ocular irritant and/or corrosive effects when topically applied to the eye of three New Zealand White rabbits.
All animals received 0.1 mL of a 2% solution XMP.629 in 10 mM sodium acetate instilled into the right conjunctival sac and left in place for 24 hours. The control eye was untreated. The treated eye was washed out with 100 mL of lukewarm water for one to two minutes at approximately 24 hours post-dose. The treated and control eyes were examined at approximately 1, 24, 48, and 72 hours post-dose and on days 5, 8, and 15 for ocular irritation using the standard Draize scoring system (Draize et al., 1944, supra). Sodium fluorescein and ultraviolet light was used to examine for possible corneal injury.

[18] = parameters: decrease of plasma levels within the first 12 hours: dose or concentration left out as unconfirmed; settings: for T1/2α / T1/2β / T1/2γ / T1/4 average / Vc: Sinclair mini-pig
[19] = 0.05 mg/kg XMP.629 acetate short IV infusion
[20] = 0.2 mg/kg XMP.629 acetate short IV infusion

For `CC(C)C[C@@H](NC(=O)[C@H](N)CCCCN)C(=O)N[C@H](Cc1ccccc1)C(=O)N[C@H](CCCNC(=N)N)C(=O)N[C@H](Cc1cccc2ccccc12)C(=O)N[C@H](CCC(N)=O)C(=O)N[C@H](C)C(=O)N[C@H](CCCCN)C(=O)N[C@H](Cc1cccc2ccccc12)C(N)=O` [XMP.629, NH2-lys-leu-phe-arg-(3-(1-naphthyl)-ala)-gln-ala-lys-(3-(1-naphthyl)-ala)-CONH2] (H-[dK][dL][dF][dR][d1Nal][dQ][dA][dK][d1Nal]-NH2), the “radioactivity remained in the body (carcass)” value [1] was 79.7%, the “Minimum Inhibitory Concentrations” value ([2]; Staphylococcus aureus 6258) was 2.00 µg/mL and the “Minimum Inhibitory Concentrations” value ([2]; Staphylococcus aureus 11371) was 2.00 µg/mL. For the same molecule, the “Minimum Inhibitory Concentrations” value ([2]; Staphylococcus aureus 12598) was 2.00 µg/mL, the “Minimum Inhibitory Concentrations” value ([2]; Staphylococcus aureus 19636) was 2.00 µg/mL and the “Minimum Inhibitory Concentrations” value ([2]; Staphylococcus aureus BAA-38 (MRSA)) was 2.00 µg/mL. For the same molecule, the PAE value ([3]; 1 μg/mL, contact 30 or 60 minutes, accurate value could not be assigned) was ≥ 12 h, the “recovery of affected cells” value ([3]; exposure to 0.5 to 2.0 MBCs for 15 minutes) was “did not recover, even after 24 hours of incubation” and the “duration of continuing inhibitory, but not lethal, effect after contact” value ([3]; residence time greater than 15 minutes) was “more than 5 hours”. The “volume of the central compartment” value (0.05 mg/kg dose) was 203.2 mL/kg, the “decrease of plasma concentrations within 4 hours of dosing” value (intravenous) was “approximately 100 fold” and the “Minimum Inhibitory Concentrations” value ([4]; Escherichia coli 07:K1) was 4.00 µg/mL. The “Minimum Inhibitory Concentrations” value ([4]; Escherichia coli 0111:B4) was 2.00 µg/mL, the “Minimum Inhibitory Concentrations” value [5] was 32.0 µg/mL and the “Minimum Inhibitory Concentrations” value ([6]; Serratia marcescens 13880) was 64.0 µg/mL. The “Minimum Inhibitory Concentrations” value ([6]; Serratia marcescens 14756) was 32.0 µg/mL, the “Minimum Inhibitory Concentrations” value [7] was 4.00 µg/mL and the “Minimum Inhibitory Concentrations” value [8] was 16.0 µg/mL. The “Minimum Inhibitory Concentrations” value [9] was 4.00 µg/mL, the “Minimum Inhibitory Concentrations” value [10] was 4.00 µg/mL and the “Minimum Inhibitory Concentrations” value ([11]; Klebsiella pneumoniae 19645) was 2.00 µg/mL. For the same molecule, the “Minimum Inhibitory Concentrations” value ([11]; Klebsiella pneumoniae 29011) was 8.00 µg/mL, the “Minimum Inhibitory Concentrations” value [12] was 2.00 µg/mL and the “Minimum Inhibitory Concentrations” value [13] was >64 µg/mL. For the same molecule, the “MIC90, XMP.629 data reported as MBC values” [14] was 8 mg/L (≈ 6.23 µM), the “MIC90, XMP.629 data reported as MBC values” ([14]; in FB (formulation buffer)) was 0.06 mg/L (≈ 0.0467 µM) and the MIC/MBC [15] was >4 mg/L. For the same molecule, the clinical observation ([16]; 1.0% XMP.629, four hours after administration, four males and one female, resolved by Day 2) was “Decreased activity”, the clinical signs ([16]; concentrations of 0.1 or 0.5% XMP.629) was “No clinical signs of systemic toxicity” and the minimum lethal dose ([16]; single oral gavage of gel, 10 mL/kg (10 mg/mL)) was > 1 % XMP.629. For the same molecule, the “ocular irritation, overall” value ([17]; 2% XMP.629 in 10 mM sodium acetate solution) was “mildly irritating”, the corneal opacity ([17]; 2% solution in 10 mM sodium acetate, any time point) was “no effects on corneal opacity” and the “iris, average scores” value ([17]; 2% solution, 48 hours post-instillation) was “less than 1”. The T1/2α [18, 19] was 5.46 min, the T1/2β [18, 19] was 1.28 h and the T1/2γ [18, 19] was 15.0 h. The T1/4 average [18, 19] was 0.36 h, the Vc [18, 19] was 0.0674 L/kg and the T1/2α [18, 20] was 1.86 min. The T1/2β [18, 20] was 1.03 h, the T1/2γ [18, 20] was 15.4 h and the T1/4 average [18, 20] was 0.58 h. For the same molecule, the Vc [18, 20] was 0.1018 L/kg and the “decrease of plasma levels within the first 12 hours” value ([18]; short IV infusion) was 100 fold.
